Measured values taken from patent US9061069B2, “Use of constrained peptide mimic oligomers as vectorization agents” (CENTRE NATIONAL DE LA RECHERCHE SCIENTIFIQUE, priority 2009, dated 2015).
Where a SMILES comes first, the peptide text is derived from it. [ ]: non-standard residue; d: D form. The star is where a group is joined. Sta = CC(C)C[C@H](N)[C@@H](O)CC(=O)O; Isovaleryl = CC(C)CC(=O)*

Legend:
[1] = system: cancerous cells (MDA-MB-231, MCF7, LNCaP, HCT116, SaOs2); assay: cell growth / proliferation of tumoral lines, incubation for 5 days; format: cell-based; conditions: inhibitor alone
Method: FIG. 2 describes the cell growth (in percentage of number of cells with respect to a pepstatin control) of cancerous cells (mammary […] and MCF7, prostatics LNCaP, colic HCT116, osteoblastics SaOs2) as a function of their incubation for 5 days with 1 oligomer of AMPA (4497), pepstatin alone (Peps), [Val^1]-Pepstatin bonded to arginine (4567) and two conjugate inhibitors of cathepsin D-oligomer of AMPA bonded to an arginine residue (4564 and 4463). The negative percentages correspond to a reduction in the number of cells with respect to the initial cellular seeding.
FIG. 3 describes the cell growth (in percentage of number of cells with respect to a pepstatin control) of cancerous cells (MDA-MB-231, MCF7, LNCaP, HCT116, SaOs2) as a function of their incubation for 5 days with 1 oligomer of AMPA (4497), [Val^1]-Pepstatin bonded to conjugated arginine 5 (4567) and 4 [Val^1]-Pepstatin-oligomer of AMPA bonded to a lysine or arginine residue (4461, 4562, 4463, 4564). The negative percentages correspond to a reduction in the number of cells with respect to the initial cellular seeding.
The application of these vectors within the context of a tumoral pathology is now explored. […]

[2] = system: cells of the line MDA-MB-231; assay: cytotoxicity, cellular viability test MTT; format: cell-based, human; conditions: incubation of 5 days, 10^-5M
Text: The cytotoxicity of this novel class of molecules has also been determined in cells of the line MDA-MB-231 by using a cellular viability diagnostic test, MTT.

CC(C)CC(=O)N[C@H](C(=O)N[C@H](C(=O)N[C@@H](CC(C)C)[C@@H](O)CC(=O)N[C@@H](C)C(=O)N[C@@H](CC(C)C)[C@@H](O)CC(=O)O)C(C)C)C(C)C [pepstatin A] (Isovaleryl-VV[Sta]A[Sta]-OH)
effect on the proliferation of tumoral cells [1]: inactive

NC(=O)CN1C(=O)[C@H](NC(=O)CN2C(=O)[C@H](NC(=O)COCCOCCNC(=S)Nc3ccc4c(c3)C(=O)OC43c4ccc(O)cc4Oc4cc(O)ccc43)CSc3ccccc32)CSc2ccccc21 [JMV4131]
effect on cellular viability (MTT) [2]: significant effect on cellular viability
